Results published in patent publication US10435405B2, “Pyrazolopyridine compounds and uses thereof” (Incyte Corporation, priority 2016, dated 2019).

Biological target: HPK1 (Homo sapiens (Human), UniProt Q92918)
Assay: HPK1 Kinase Binding Assay
Method: A stock solution of 1 mM test compound was prepared in DMSO. The compound plate was prepared by 3-fold and 11-point serial dilutions. 0.1 μL of the compound in DMSO was transferred from the compound plate to the white 384 well polystyrene plates. The assay buffer contained 50 mM HEPES, pH 7.5, 0.01% Tween-20, 5 mM MgCl2, 0.01% BSA, and 5 mM DTT. 5 μl of 4 nM active HPK1 (SignalChem M23-11G) prepared in the buffer was added to the plate. The enzyme concentration given was based on the given stock concentration reported by the vender. 5 μl of 18 nM tracer 222 (ThermoFisher PV6121) and 4 nM LanthaScreen Eu-Anti GST antibody (ThermoFisher PV5595) were added. After one hour incubation at 25° C., the plates were read on a PHERAstar FS plate reader (BMG Labtech). Ki values were determined.

Chain of HPK1 (Q92918 1-346): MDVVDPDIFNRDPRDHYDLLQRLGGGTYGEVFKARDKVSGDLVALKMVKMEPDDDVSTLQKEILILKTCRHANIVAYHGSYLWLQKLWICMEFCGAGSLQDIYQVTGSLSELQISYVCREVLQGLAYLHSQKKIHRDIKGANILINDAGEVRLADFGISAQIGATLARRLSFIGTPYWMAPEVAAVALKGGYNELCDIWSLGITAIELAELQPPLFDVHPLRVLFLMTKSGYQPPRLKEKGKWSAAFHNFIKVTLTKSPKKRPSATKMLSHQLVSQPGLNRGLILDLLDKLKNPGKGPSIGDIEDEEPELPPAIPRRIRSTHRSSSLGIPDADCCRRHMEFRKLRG

## Cc1cc(C2CCCN2)cc(F)c1-c1cc2c(-c3cnn(C)c3)n[nH]c2cn1 (single isomer, unassigned) [Example 171, 5-(2-Fluoro-6-methyl-4-(pyrrolidin-2-yl)phenyl)-3-(1-methyl-1H-pyrazol-4-yl)-1H-pyrazolo[3,4-c]pyridine]
  Ki: ≤ 100 nM

## Cc1cc(C2CCCCN2)cc(F)c1-c1cc2c(-c3cnn(C)c3)n[nH]c2cn1 (single isomer, unassigned) [Example 174, 5-(2-Fluoro-6-methyl-4-(piperidin-2-yl)phenyl)-3-(1-methyl-1H-pyrazol-4-yl)-1H-pyrazolo[3,4-c]pyridine]
  Ki: ≤ 100 nM

## CNC(C)c1cc(C)c(-c2cc3c(-c4cnn(C)c4)n[nH]c3cn2)c(F)c1 (single isomer, unassigned) [Example 189, 1-(3-Fluoro-5-methyl-4-(3-(1-methyl-1H-pyrazol-4-yl)-1H-pyrazolo[3,4-c]pyridin-5-yl)phenyl)-N-methylethanamine]
  Ki: ≤ 100 nM

## Cn1cc(-c2n[nH]c3cnc(-c4c(F)cc(C5CCCN5)cc4C(F)(F)F)cc23)cn1 (single isomer, unassigned) [Example 226, 5-(2-Fluoro-4-(pyrrolidin-2-yl)-6-(trifluoromethyl)phenyl)-3-(1-methyl-1H-pyrazol-4-yl)-1H-pyrazolo[3,4-c]pyridine]
  Ki: ≤ 100 nM

## Cn1cc(-c2n[nH]c3cnc(-c4c(F)cc(C5CCCN5)cc4C(F)(F)F)cc23)cn1 (single isomer, unassigned) [Example 227, 5-(2-Fluoro-4-(pyrrolidin-2-yl)-6-(trifluoromethyl)phenyl)-3-(1-methyl-1H-pyrazol-4-yl)-1H-pyrazolo[3,4-c]pyridine]
  Ki: ≤ 100 nM

## CNC(C)c1cc(C)c(-c2cc3c(-c4cnn(C5CC5)c4)n[nH]c3cn2)c(F)c1 (single isomer, unassigned) [Example 228, 1-(4-(3-(1-Cyclopropyl-1H-pyrazol-4-yl)-1H-pyrazolo[3,4-c]pyridin-5-yl)-3-fluoro-5-methylphenyl)-N-methylethanamine]
  Ki: ≤ 100 nM

## CNC(C)c1cc(C)c(-c2cc3c(-c4cnn(C5CC5)c4)n[nH]c3cn2)c(F)c1 (single isomer, unassigned) [Example 229, 1-(4-(3-(1-Cyclopropyl-1H-pyrazol-4-yl)-1H-pyrazolo[3,4-c]pyridin-5-yl)-3-fluoro-5-methylphenyl)-N-methylethanamine]
  Ki: ≤ 100 nM

## CCn1cc(-c2n[nH]c3cnc(-c4c(C)cc(C5CCCCN5)cc4F)cc23)cn1 (single isomer, unassigned) [Example 230, 3-(1-Ethyl-1H-pyrazol-4-yl)-5-(2-fluoro-6-methyl-4-(piperidin-2-yl)phenyl)-1H-pyrazolo[3,4-c]pyridine]
  Ki: ≤ 100 nM

## CCn1cc(-c2n[nH]c3cnc(-c4c(C)cc(C5CCCCN5)cc4F)cc23)cn1 (single isomer, unassigned) [Example 231, 3-(1-Ethyl-1H-pyrazol-4-yl)-5-(2-fluoro-6-methyl-4-(piperidin-2-yl)phenyl)-1H-pyrazolo[3,4-c]pyridine]
  Ki: ≤ 100 nM

## Cc1cc(C2CCCCN2)cc(F)c1-c1cc2c(-c3cnn(C4CC4)c3)n[nH]c2cn1 (single isomer, unassigned) [Example 232, 3-(1-Cyclopropyl-1H-pyrazol-4-yl)-5-(2-fluoro-6-methyl-4-(piperidin-2-yl)phenyl)-1H-pyrazolo[3,4-c]pyridine]
  Ki: ≤ 100 nM

## Cc1cc(C2CCCCN2)cc(F)c1-c1cc2c(-c3cnn(C4CC4)c3)n[nH]c2cn1 (single isomer, unassigned) [Example 233, 3-(1-Cyclopropyl-1H-pyrazol-4-yl)-5-(2-fluoro-6-methyl-4-(piperidin-2-yl)phenyl)-1H-pyrazolo[3,4-c]pyridine]
  Ki: ≤ 100 nM

## CNC1CCc2c1cc(C)c(-c1cc3c(-c4cnn(C)c4)n[nH]c3cn1)c2F (single isomer, unassigned) [Example 238, 4-Fluoro-N,6-dimethyl-5-(3-(1-methyl-1H-pyrazol-4-yl)-1H-pyrazolo[3,4-c]pyridin-5-yl)-2,3-dihydro-1H-inden-1-amine]
  Ki: ≤ 100 nM

## CNC1CCc2c1cc(C)c(-c1cc3c(-c4cnn(C)c4)n[nH]c3cn1)c2F (single isomer, unassigned) [Example 239, 4-Fluoro-N,6-dimethyl-5-(3-(1-methyl-1H-pyrazol-4-yl)-1H-pyrazolo[3,4-c]pyridin-5-yl)-2,3-dihydro-1H-inden-1-amine]
  Ki: ≤ 100 nM

## COc1cccc(F)c1-c1cc2c(NC(=O)c3ccccc3)n[nH]c2cn1 [Example 1, N-(5-(2-Fluoro-6-methoxyphenyl)-1H-pyrazolo[3,4-c]pyridin-3-yl)benzamide]
  Ki: ≤ 100 nM

## COc1cccc(F)c1-c1cc2c(NC(=O)c3ccc(C)cc3)n[nH]c2cn1 [Example 2, N-(5-(2-Fluoro-6-methoxyphenyl)-1H-pyrazolo[3,4-c]pyridin-3-yl)-4-methylbenzamide]
  Ki: ≤ 100 nM

## COc1cccc(F)c1-c1cc2c(NC(=O)c3ccc(Br)cc3)n[nH]c2cn1 [Example 3, 4-Bromo-N-(5-(2-fluoro-6-methoxyphenyl)-1H-pyrazolo[3,4-c]pyridin-3-yl)benzamide]
  Ki: ≤ 100 nM

## COc1cccc(F)c1-c1cc2c(NC(=O)c3cccc(Br)c3)n[nH]c2cn1 [Example 4, 3-Bromo-N-(5-(2-fluoro-6-methoxyphenyl)-1H-pyrazolo[3,4-c]pyridin-3-yl)benzamide]
  Ki: ≤ 100 nM

## COc1cccc(F)c1-c1cc2c(NC(=O)c3ccc(F)cc3)n[nH]c2cn1 [Example 5, 4-Fluoro-N-(5-(2-fluoro-6-methoxyphenyl)-1H-pyrazolo[3,4-c]pyridin-3-yl)benzamide]
  Ki: ≤ 100 nM

## COc1cccc(F)c1-c1cc2c(NC(=O)c3cccc(F)c3)n[nH]c2cn1 [Example 6, 3-Fluoro-N-(5-(2-fluoro-6-methoxyphenyl)-1H-pyrazolo[3,4-c]pyridin-3-yl)benzamide]
  Ki: ≤ 100 nM

## COc1cccc(F)c1-c1cc2c(NC(=O)c3cccc(C#N)c3)n[nH]c2cn1 [Example 7, 3-Cyano-N-(5-(2-fluoro-6-methoxyphenyl)-1H-pyrazolo[3,4-c]pyridin-3-yl)benzamide]
  Ki: ≤ 100 nM

## CCc1ccc(C(=O)Nc2n[nH]c3cnc(-c4c(F)cccc4OC)cc23)cc1 [Example 8, 4-Ethyl-N-(5-(2-fluoro-6-methoxyphenyl)-1H-pyrazolo[3,4-c]pyridin-3-yl)benzamide]
  Ki: ≤ 100 nM

## COc1cccc(C(=O)Nc2n[nH]c3cnc(-c4c(F)cccc4OC)cc23)c1 [Example 9, N-(5-(2-Fluoro-6-methoxyphenyl)-1H-pyrazolo[3,4-c]pyridin-3-yl)-3-methoxybenzamide]
  Ki: ≤ 100 nM

## COc1cccc(F)c1-c1cc2c(NC(=O)c3ccc(F)c(C)c3)n[nH]c2cn1 [Example 10, 4-Fluoro-N-(5-(2-fluoro-6-methoxyphenyl)-1H-pyrazolo[3,4-c]pyridin-3-yl)-3-methylbenzamide]
  Ki: ≤ 100 nM

## COc1cccc(F)c1-c1cc2c(NC(=O)c3cc(F)cc(F)c3)n[nH]c2cn1 [Example 11, 3,5-Difluoro-N-(5-(2-fluoro-6-methoxyphenyl)-1H-pyrazolo[3,4-c]pyridin-3-yl)benzamide]
  Ki: ≤ 100 nM

## COc1cccc(F)c1-c1cc2c(NC(=O)c3ccc(F)c(F)c3)n[nH]c2cn1 [Example 12, 3,4-Difluoro-N-(5-(2-fluoro-6-methoxyphenyl)-1H-pyrazolo[3,4-c]pyridin-3-yl)benzamide]
  Ki: ≤ 100 nM

## COc1cccc(F)c1-c1cc2c(NC(=O)c3ccc4c(c3)OCO4)n[nH]c2cn1 [Example 13, N-(5-(2-Fluoro-6-methoxyphenyl)-1H-pyrazolo[3,4-c]pyridin-3-yl)benzo[d][1,3]dioxole-5-carboxamide]
  Ki: ≤ 100 nM

## COc1cccc(F)c1-c1cc2c(NC(=O)c3cnn(C)c3)n[nH]c2cn1 [Example 14, N-(5-(2-Fluoro-6-methoxyphenyl)-1H-pyrazolo[3,4-c]pyridin-3-yl)-1-methyl-1H-pyrazole-4-carboxamide]
  Ki: ≤ 100 nM

## COc1cccc(F)c1-c1cc2c(NC(=O)c3ccn(C)n3)n[nH]c2cn1 [Example 15, N-(5-(2-Fluoro-6-methoxyphenyl)-1H-pyrazolo[3,4-c]pyridin-3-yl)-1-methyl-1H-pyrazole-3-carboxamide]
  Ki: ≤ 100 nM

## COc1cccc(F)c1-c1cc2c(NC(=O)c3cccc(N4CCOCC4)c3)n[nH]c2cn1 [Example 16, N-(5-(2-Fluoro-6-methoxyphenyl)-1H-pyrazolo[3,4-c]pyridin-3-yl)-3-morpholinobenzamide]
  Ki: ≤ 100 nM

## COc1cccc(F)c1-c1cc2c(NC(=O)c3cccc(N4CCNC(=O)C4)c3)n[nH]c2cn1 [Example 17, N-(5-(2-Fluoro-6-methoxyphenyl)-1H-pyrazolo[3,4-c]pyridin-3-yl)-3-(3-oxopiperazin-1-yl)benzamide]
  Ki: ≤ 100 nM

## COc1cccc(F)c1-c1cc2c(NC(=O)c3cccc(N4CCN(C)CC4)c3)n[nH]c2cn1 [Example 18, N-(5-(2-Fluoro-6-methoxyphenyl)-1H-pyrazolo[3,4-c]pyridin-3-yl)-3-(4-methylpiperazin-1-yl)benzamide]
  Ki: ≤ 100 nM

## COc1cccc(F)c1-c1cc2c(NC(=O)c3cccc(N4CCN(C)C(=O)C4)c3)n[nH]c2cn1 [Example 19, N-(5-(2-Fluoro-6-methoxyphenyl)-1H-pyrazolo[3,4-c]pyridin-3-yl)-3-(4-methyl-3-oxopiperazin-1-yl)benzamide]
  Ki: ≤ 100 nM

## CCN1CCN(c2cccc(C(=O)Nc3n[nH]c4cnc(-c5c(F)cccc5OC)cc34)c2)CC1 [Example 20, 3-(4-Ethylpiperazin-1-yl)-N-(5-(2-fluoro-6-methoxyphenyl)-1H-pyrazolo[3,4-c]pyridin-3-yl)benzamide]
  Ki: ≤ 100 nM
